Laboratory results from article PMC4628560 (Nature cell biology, 2015).
Read-outs that look alike come from different tables or passages of the source.

Columns and labels:
[1] = biological target: T1, 6-phosphogluconate dehydrogenase (6PGD) (Homo sapiens, UniProt P52209); assay: tryptophan fluorescence-based binding assay with purified human 6PGD
T1 sequence (P52209 1-483): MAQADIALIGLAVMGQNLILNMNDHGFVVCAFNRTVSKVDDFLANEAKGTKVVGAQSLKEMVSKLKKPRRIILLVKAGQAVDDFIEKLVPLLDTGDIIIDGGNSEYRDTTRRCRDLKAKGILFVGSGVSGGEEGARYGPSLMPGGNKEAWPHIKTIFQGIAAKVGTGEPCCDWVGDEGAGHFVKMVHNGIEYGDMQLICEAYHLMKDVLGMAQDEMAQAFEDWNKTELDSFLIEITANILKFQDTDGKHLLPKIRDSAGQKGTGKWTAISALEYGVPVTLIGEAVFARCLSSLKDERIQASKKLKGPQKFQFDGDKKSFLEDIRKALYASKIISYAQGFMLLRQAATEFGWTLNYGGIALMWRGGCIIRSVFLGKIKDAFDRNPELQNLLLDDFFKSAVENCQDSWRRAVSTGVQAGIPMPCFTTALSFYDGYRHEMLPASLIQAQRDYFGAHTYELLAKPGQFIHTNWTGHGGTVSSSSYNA

[2] = biological target: T1, 6-phosphogluconate dehydrogenase (6PGD); assay: as above; remark: listed apart in the source

In the case of COc1cccc2c1C(=O)c1c(O)cccc1C2=O [S3, 1-Hydroxy-8-methoxy-anthraquinon], the Kd [1] is reported as 17.1 µM.
Work on COc1cc(O)c2c(c1)C(=O)c1cc(C)cc(O)c1C2=O [Physcion, 1,8-Dihydroxy-3-methoxy-6-methyl-anthraquinone] yielded a Kd [2] of 26 µM.
